Results on 13 molecules are retold here after PubChem BioAssay (NCI).

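Cells were grown in 96-well plates and exposed to each compound for 48 hours at five concentrations; endpoints were interpolated linearly between bracketing concentrations, or set to the highest concentration if not reached. At the GI50, growth is halved. The concentration for full growth arrest is given as TGI.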 Some results are limits rather than exact numbers.

Among the test systems are ACHN renal; EKVX NSCLC; HCT-116 colon; KM12 colon; NCI-H460 lung; SK-MEL-5 melanoma; SR leukemia; U251 CNS; UACC-257 melanoma; UO-31 renal; HS 578T breast; MDA-N.
Assay in all cases: growth of human tumour cells (NCI), 48 h

Consider `Nc1nc2c(ncn2CCOC(c2ccccc2)P(=O)(O)O)c(=O)[nH]1` (stereo not given), for which the TGI in the assay on ACHN renal, with EKVX NSCLC, in the assay with HCT-116 colon, with KM12 colon, in the assay on NCI-H460 lung and in the assay with SK-MEL-5 melanoma was above 100 µM each time. In addition, the TGI in the assay with SR leukemia, in the assay with U251 CNS, in the assay with UACC-257 melanoma and in the assay on UO-31 renal was above 100 µM throughout.
In the case of `COc1cccc(NCC(=O)Nn2c(-c3ccccc3)nc3ccccc3c2=O)c1`, the TGI in the assay with ACHN renal, in the assay on EKVX NSCLC, in the assay on HCT-116 colon, with HS 578T breast, in the assay on KM12 colon and with NCI-H460 lung was above 100 µM each time. For the same molecule, the TGI in the assay on SK-MEL-5 melanoma, in the assay with SR leukemia, in the assay with U251 CNS, in the assay with UACC-257 melanoma and in the assay on UO-31 renal was above 100 µM in each case.
Regarding `NC(=O)N/N=C(\Cc1nc2ccc(C(=O)c3ccccc3)cc2[nH]c1=O)C(=O)Nc1ccc(Br)cc1`, the TGI with ACHN renal, in the assay with EKVX NSCLC, in the assay on HCT-116 colon, in the assay with KM12 colon, in the assay on NCI-H460 lung and in the assay on SK-MEL-5 melanoma was above 100 µM each time. The TGI in the assay on SR leukemia, with U251 CNS, in the assay with UACC-257 melanoma and in the assay with UO-31 renal was above 100 µM in each case.
With `O=c1nc2n(cc1/C=C\Br)C1CC(O)C(CO2)O1` (stereo not given), the TGI with ACHN renal, in the assay with EKVX NSCLC, in the assay on HCT-116 colon, in the assay on KM12 colon, in the assay with MDA-N and in the assay with NCI-H460 lung was above 100 µM throughout. For the same molecule, the TGI in the assay on SK-MEL-5 melanoma, with U251 CNS, with UACC-257 melanoma and with UO-31 renal was above 100 µM throughout.
Turning to `N#CCCC(CC#N)N1CCN(CCO)CC1` (stereo not given), the TGI in the assay on ACHN renal, in the assay on EKVX NSCLC, in the assay on HCT-116 colon, in the assay with HS 578T breast, with KM12 colon and in the assay with NCI-H460 lung was above 100 µM each time. In addition, the TGI in the assay on SK-MEL-5 melanoma, in the assay with SR leukemia, in the assay with U251 CNS, in the assay on UACC-257 melanoma and in the assay with UO-31 renal was above 100 µM throughout.
Take `CN(C)C(=O)CC(C(=O)O)c1c[nH]c2ccccc12` (stereo not given): the TGI in the assay with ACHN renal, in the assay on EKVX NSCLC, in the assay on HCT-116 colon, in the assay on KM12 colon, in the assay with NCI-H460 lung and in the assay with SK-MEL-5 melanoma was above 100 µM each time. Moreover, the TGI in the assay with SR leukemia was above 100 µM; in the assay with U251 CNS, above 100 µM; in the assay with UACC-257 melanoma, above 100 µM; with UO-31 renal, 41.6 µM.
In the case of `CCc1cccc(C(C)C)c1NC(=O)C(=O)C(C(=O)C(=O)OC)c1nc2ccccc2[nH]c1=O` (stereo not given), the TGI in the assay with ACHN renal, in the assay on EKVX NSCLC, in the assay with HCT-116 colon, in the assay on KM12 colon, with NCI-H460 lung and in the assay on SK-MEL-5 melanoma was above 100 µM throughout. In addition, the TGI with SR leukemia, in the assay on U251 CNS, with UACC-257 melanoma and with UO-31 renal was above 100 µM each time.
Turning to `CN1CCN(CC(=O)Nc2ccc3ncnc(Nc4ccc(Oc5cccc(C(F)(F)F)c5)c(Cl)c4)c3c2)CC1`, the GI50 is 1.12 µM with ACHN renal; 1.32 µM in the assay with EKVX NSCLC; 1.79 µM in the assay on KM12 colon; 1.74 µM with NCI-H460 lung; 0.371 µM in the assay with SR leukemia; 1.93 µM with UACC-257 melanoma. The GI50 in the assay with UO-31 renal is 1.2 µM. For the same molecule, the TGI in the assay on ACHN renal stood at 2.33 µM; in the assay with EKVX NSCLC, 2.7 µM; in the assay on KM12 colon, 3.3 µM; with NCI-H460 lung, 3.29 µM; in the assay with SR leukemia it was 2.2 µM; with UACC-257 melanoma it was 3.79 µM. The same molecule yielded a TGI in the assay with UO-31 renal of 2.46 µM.
`CCCCCCCCCCCCCCCCCCNc1ccn(C2OC(COP(=O)(O)O)C(O)C2O)c(=O)n1` (stereo not given): the TGI in the assay on ACHN renal, with EKVX NSCLC, in the assay with HCT-116 colon, in the assay on HS 578T breast, with KM12 colon and with SK-MEL-5 melanoma was above 100 µM in each case. Besides, the TGI in the assay with U251 CNS, in the assay with UACC-257 melanoma and in the assay with UO-31 renal was above 100 µM in each case.
As to `Cc1ccc(C(=O)CC(Cl)=C(Cl)Cl)cc1`, the TGI with ACHN renal, in the assay with HCT-116 colon, with HS 578T breast, in the assay on KM12 colon, in the assay with NCI-H460 lung and in the assay on SK-MEL-5 melanoma was above 100 µM in each case. Also, the TGI was 55.6 µM in the assay with SR leukemia, above 100 µM in the assay on U251 CNS, above 100 µM in the assay with UACC-257 melanoma and above 100 µM with UO-31 renal.
Regarding `CCOC(=O)CCC(NC(=O)c1ccc(CNc2nc3cc(N)cc(N)c3nc2-c2ccccc2)cc1)C(=O)OCC` (stereo not given), the TGI with ACHN renal, in the assay on EKVX NSCLC, with HCT-116 colon, in the assay on HS 578T breast, in the assay on KM12 colon and in the assay with NCI-H460 lung was above 100 µM each time. In addition, the TGI in the assay with SK-MEL-5 melanoma is above 100 µM; in the assay with SR leukemia it was 23.7 µM; in the assay on U251 CNS, above 100 µM; in the assay with UACC-257 melanoma, 39.1 µM; in the assay with UO-31 renal it was above 100 µM.
Turning to `O=c1ccc2ccccc2o1`, the TGI in the assay with ACHN renal, with EKVX NSCLC, with HCT-116 colon, in the assay on KM12 colon, with NCI-H460 lung and with U251 CNS was above 100 µM throughout. Moreover, the TGI with UACC-257 melanoma and in the assay with UO-31 renal was above 100 µM each time.
In the case of `COc1ccc(CNc2nc(NCc3ccc(OC)cc3)nc(Nc3ccccc3)n2)cc1`, the TGI with ACHN renal was above 100 µM; in the assay with EKVX NSCLC, above 100 µM; in the assay with HCT-116 colon it was above 100 µM; in the assay with HS 578T breast, above 100 µM; in the assay on KM12 colon, 35.3 µM; with NCI-H460 lung it was above 100 µM. For the same molecule, the TGI is above 100 µM in the assay with SK-MEL-5 melanoma; 3.81 µM with SR leukemia; above 100 µM in the assay with U251 CNS; above 100 µM in the assay with UACC-257 melanoma; above 100 µM in the assay with UO-31 renal.
